For one assay, the target named is T1, ScRR1 (Saccharomyces cerevisiae, UniProt P21524).
T1 sequence (P21524 1-888): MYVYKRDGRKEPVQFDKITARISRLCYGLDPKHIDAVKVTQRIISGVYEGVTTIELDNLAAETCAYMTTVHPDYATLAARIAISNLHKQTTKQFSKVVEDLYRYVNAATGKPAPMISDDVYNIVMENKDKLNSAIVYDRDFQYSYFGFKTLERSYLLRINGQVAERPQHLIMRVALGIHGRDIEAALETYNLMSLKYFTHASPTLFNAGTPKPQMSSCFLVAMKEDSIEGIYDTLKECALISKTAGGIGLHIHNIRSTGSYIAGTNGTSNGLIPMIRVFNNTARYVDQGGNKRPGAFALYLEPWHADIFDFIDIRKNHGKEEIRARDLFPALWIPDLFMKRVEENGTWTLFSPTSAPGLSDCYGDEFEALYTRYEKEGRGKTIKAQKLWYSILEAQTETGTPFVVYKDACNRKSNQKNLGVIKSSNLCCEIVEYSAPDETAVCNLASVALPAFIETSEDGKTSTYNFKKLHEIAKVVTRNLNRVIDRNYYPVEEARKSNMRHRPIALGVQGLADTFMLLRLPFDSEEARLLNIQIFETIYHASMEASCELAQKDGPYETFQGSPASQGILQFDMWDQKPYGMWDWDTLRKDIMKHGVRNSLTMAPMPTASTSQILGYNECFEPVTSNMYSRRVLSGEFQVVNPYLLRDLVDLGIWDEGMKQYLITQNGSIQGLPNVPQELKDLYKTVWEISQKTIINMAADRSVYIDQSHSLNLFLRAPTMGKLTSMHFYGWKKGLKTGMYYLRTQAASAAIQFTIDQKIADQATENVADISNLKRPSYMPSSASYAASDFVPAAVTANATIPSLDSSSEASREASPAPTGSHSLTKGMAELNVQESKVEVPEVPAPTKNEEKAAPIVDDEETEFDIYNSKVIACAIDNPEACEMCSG
Description: X-ray crystal structure, […] Å, crystal soaking. Type of assay: binding. The conditions noted are these: allosteric S-site; Mg2+ bound at alpha- and gamma-phosphates.

The target of the next assay is T2, hRR (hRR1 + hRR2) (Homo sapiens, UniProt P23921).
T2 sequence (P23921 1-792): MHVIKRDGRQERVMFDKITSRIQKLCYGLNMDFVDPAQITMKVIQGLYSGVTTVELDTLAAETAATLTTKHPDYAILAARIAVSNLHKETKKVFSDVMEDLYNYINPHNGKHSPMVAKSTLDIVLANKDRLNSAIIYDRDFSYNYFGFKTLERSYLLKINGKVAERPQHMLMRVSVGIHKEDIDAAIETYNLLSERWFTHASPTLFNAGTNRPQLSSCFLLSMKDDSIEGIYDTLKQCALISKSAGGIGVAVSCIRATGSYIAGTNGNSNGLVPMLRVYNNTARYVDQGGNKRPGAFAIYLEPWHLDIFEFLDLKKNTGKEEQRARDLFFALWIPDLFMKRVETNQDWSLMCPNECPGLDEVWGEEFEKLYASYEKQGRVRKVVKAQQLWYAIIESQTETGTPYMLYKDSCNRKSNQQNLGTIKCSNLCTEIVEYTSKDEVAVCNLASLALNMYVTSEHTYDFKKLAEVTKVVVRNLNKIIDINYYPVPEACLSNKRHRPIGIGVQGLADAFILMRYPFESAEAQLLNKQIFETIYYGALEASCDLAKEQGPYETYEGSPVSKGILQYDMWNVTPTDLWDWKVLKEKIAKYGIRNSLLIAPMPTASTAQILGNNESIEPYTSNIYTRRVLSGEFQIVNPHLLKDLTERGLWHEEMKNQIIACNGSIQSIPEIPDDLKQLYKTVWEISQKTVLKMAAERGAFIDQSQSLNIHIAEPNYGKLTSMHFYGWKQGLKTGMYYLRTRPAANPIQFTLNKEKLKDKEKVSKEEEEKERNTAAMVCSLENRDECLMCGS
T2 sequence (P31350 1-389 partner): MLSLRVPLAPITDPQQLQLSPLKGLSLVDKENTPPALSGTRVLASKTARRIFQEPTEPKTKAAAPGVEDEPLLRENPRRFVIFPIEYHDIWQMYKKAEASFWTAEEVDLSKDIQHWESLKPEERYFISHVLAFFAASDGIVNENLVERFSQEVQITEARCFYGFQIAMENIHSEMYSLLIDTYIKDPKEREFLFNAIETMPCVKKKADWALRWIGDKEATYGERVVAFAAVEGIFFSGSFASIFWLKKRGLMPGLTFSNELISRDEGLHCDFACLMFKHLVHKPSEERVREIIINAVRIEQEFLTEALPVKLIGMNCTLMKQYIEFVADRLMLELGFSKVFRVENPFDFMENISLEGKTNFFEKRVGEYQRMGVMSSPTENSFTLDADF
Type of assay: biochemical.

With `O=[N+]([O-])c1ccc2c(ccn2[C@H]2C[C@H](O)[C@@H](COP(=O)(O)OP(=O)(O)OP(=O)(O)O)O2)c1` [5-NITP], the “X-ray crystal structure, 2.3 Å, crystal soaking” value at ScRR1 was “clearly shows electron density for 5-NITP bound at the S-site”. Besides, the IC50 (as a rule, the concentration needed to halve the response being measured) at hRR (hRR1 + hRR2) worked out at 170 ± 5 µM.

Source of the values: paper PMC3569060 (Molecular cancer therapeutics, 2012).
